Patent publication US11091478B2 (Fochon Pharmaceuticals, Ltd., priority 2017, dated 2021)

Tests used:
DOHH2 cells = experiment: Cell proliferation assay (MTS), DOHH2 cells, 120 h; type: cell-based; conditions: Homo sapiens, DOHH-2, 120 h
Summary of the method: (§1)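 RS4;11 and DOHH2 cells at 5000 cells/well in RPMI-1640 with 10% FBS were treated with compound at 1.5–10000 nM final, nine points, at 37 °C, 5% CO2. Exposure was 72 h for RS4;11 and 120 h for DOHH2. MTS was added for 2 h, absorbance read at 490/650 nm, and IC50 calculated.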

RS4;11 cells = experiment: Cell proliferation assay (MTS), RS4;11 cells, 72 h; type: cell-based; conditions: Homo sapiens, RS4-11, 72 h
Summary of the method: as §1

IC50 (RS4;11 cells) [nM] | SMILES | IC50 (DOHH2 cells) [nM]
20 | CCN=S1(=O)CCN(CC[C@@H]2COc3cc(S(=O)(=O)NC(=O)c4ccc(N5CCN(CC6=C(c7ccc(Cl)cc7)CC(C)(C)CC6)CC5)cc4Oc4cnc5[nH]ccc5c4)cc([N+](=O)[O-])c3N2)CC1 [Example 2-128, (R)-2-((1H-pyrrolo[2,3-b]pyridin-5-yl)oxy)-4-(4-((4′-chloro-5,5-dimethyl-3,4,5,6-tetra-hydro-[1,1′-biphenyl]-2-yl)methyl)piperazin-1-yl)-N-((3-(2-(1-(ethylimino)-1-oxido-1λ^6-thiomorpholino)ethyl)-5-nitro-3,4-di-hydro-2H-benzo[b][1,4]oxazin-7-yl)sulfonyl) benzamide] | 28
9 | CC1(C)CCC(CN2CCN(c3ccc(C(=O)NS(=O)(=O)c4cc5c(c([N+](=O)[O-])c4)N[C@H](CCN4CCS(=O)(=NC6CC6)CC4)CO5)c(Oc4cnc5[nH]ccc5c4)c3)CC2)=C(c2ccc(Cl)cc2)C1 [Example 2-129, (R)-2-((1H-pyrrolo[2,3-b]pyridin-5-yl)oxy)-4-(4-((4′-chloro-5,5-dimethyl-3,4,5,6-tetra-hydro-[1,1′-biphenyl]-2-yl)methyl)piperazin-1-yl)-N-((3-(2-(1-(cylcopropylimino)-1-oxido-1λ^6-thiomorphlino)ethyl)-5-nitro-3,4-dihydro-2H-benzo[b][1,4]oxazin-7-yl)sulfanoyl)benzamide] | 16
14 | COC(=O)N=S1(=O)CCN(CC[C@@H]2COc3cc(S(=O)(=O)NC(=O)c4ccc(N5CCN(CC6=C(c7ccc(Cl)cc7)CC(C)(C)CC6)CC5)cc4Oc4cnc5[nH]ccc5c4)cc([N+](=O)[O-])c3N2)CC1 [Example 2-130, methyl (R)-(4-(2-(7-(N-(2-((1H-pyrrolo[2,3-b]pyri-din-5-yl)oxy)-4-(4-((4′-chloro-5,5-dimethyl-3,4,5,6-tetrahydro-[1,1′-biphenyl]-2-yl)meth-yl)piperazin-1-yl)benzoyl)sulfamoyl)-5-nitro-3,4-dihydro-2H-benzo[b][1,4]oxazin-3-yl)ethyl)-1-oxido-1λ^6-thiomorpholin-1-ylidene)carbamate] | 26
9 | CC1(C)CCC(CN2CCN(c3ccc(C(=O)NS(=O)(=O)c4cc5c(c([N+](=O)[O-])c4)N[C@H](CCN4CCC(N=S(C)(C)=O)CC4)CO5)c(Oc4cnc5[nH]ccc5c4)c3)CC2)=C(c2ccc(Cl)cc2)C1 [Example 2-131, (R)-2-((1H-pyrrolo[2,3-b]pyridin-5-yl)oxy)-4-(4-((4′-chloro-5,5-dimethyl-3,4,5,6-tetra-hydro-[1,1′-biphenyl]-2-yl)methyl)piperazin-1-yl)-N-((3-(2-(4-((dimethyl(oxo)-λ^6-sulfa-nylidene)amino)piperidin-1-yl)ethyl)-5-nitro-3,4-dihydro-2H-benzo[b][1,4]oxazin-7-yl)sulfonyl)benzamide] | 39
2 | CC1(C)CCC(CN2CCN(c3ccc(C(=O)NS(=O)(=O)c4cc5c(c([N+](=O)[O-])c4)N[C@@H](Cc4ccccc4)CO5)c(Oc4cnc5[nH]ccc5c4)c3)CC2)=C(c2ccc(Cl)cc2)C1 [Example 2-132, (S)-2-((1H-pyrrolo[2,3-b]pyridin-5-yl)oxy)-N-((3-benzyl-5-nitro-3,4-dihydro-2H-benzo [b][1,4]oxazin-7-yl)sulfonyl)-4-(4-((4′-chloro-5,5-dimethyl-3,4,5,6-tetrahydro-[1,1′-biphenyl]-2-yl)meth-yl)piperazin1-yl)benzamide] | 28
1 | CC1(C)CCC(CN2CCN(c3ccc(C(=O)NS(=O)(=O)c4cc5c(c([N+](=O)[O-])c4)N[C@@H](Cc4ccccn4)CO5)c(Oc4cnc5[nH]ccc5c4)c3)CC2)=C(c2ccc(Cl)cc2)C1 [Example 2-133, (S)-2-((1H-pyrrolo[2,3-b]pyridin-5-yl)oxy)-4-(4-((4′-chloro-5,5-dimethyl-3,4,5,6-tetra-hydro-[1,1′-biphenyl]-2-yl)methyl)piperazin-1-yl)-N-((5-nitro-3-(pyridin-2-ylmethyl)-3,4-dihydro-2H-benzo[b][1,4]oxazin-7-yl)sulfonyl)benzamide] | 8
2 | COC(=O)NC[C@@H]1COc2cc(S(=O)(=O)NC(=O)c3ccc(N4CCN(CC5=C(c6ccc(Cl)cc6)CC(C)(C)CC5)CC4)cc3Oc3cnc4[nH]ccc4c3)cc([N+](=O)[O-])c2N1 [Example 2-134, methyl (R)-((7-(N-(2-((1H-pyrrolo[2,3-b]pyridin-5-yl)oxy)-4-(4-((4′-chloro-5,5-dimethyl-3,4,5,6-tetrahydro-[1,1′-biphenyl]-2-yl)methyl)piperazin-1-yl)benzoyl)sulfamoyl)-5-nitro-3,4-dihydro-2H-benzo[b][1,4]oxazin-3-yl)methyl)carbamate] | 39
72 | CC1(C)CCC(CN2CCN(c3ccc(C(=O)NS(=O)(=O)c4cc5c(c([N+](=O)[O-])c4)N[C@H](CNS(=O)(=O)C4CC4)CO5)c(Oc4cnc5[nH]ccc5c4)c3)CC2)=C(c2ccc(Cl)cc2)C1 [Example 2-138, (R)-2-((1H-pyrrolo[2,3-b]pyridin-5-yl)oxy)-4-(4-((4′-chloro-5,5-dimethyl-3,4,5,6-tetra-hydro-[1,1′-biphenyl]-2-yl)methyl)piperazin-1-yl)-N-((3-(cyclopropanesulfonamidometh-yl)-5-nitro-3,4-dihydro-2H-benzo[b][1,4]oxazin-7-yl)sulfonyl)benzamide] | 166
88 | CC1(C)CCC(CN2CCN(c3ccc(C(=O)NS(=O)(=O)c4cc5c(c([N+](=O)[O-])c4)N[C@H](CNS(=O)(=O)C4CCOCC4)CO5)c(Oc4cnc5[nH]ccc5c4)c3)CC2)=C(c2ccc(Cl)cc2)C1 [Example 2-139, (R)-2-((1H-pyrolo[2,3-b]pyridin-5-yl)oxy)-4-(4-((4′-chloro-5,5-dimethyl-3,4,5,6-tetra-hydro-[1,1′-biphenyl]-2-yl)methyl)piperazin-1-yl)-N-((5-nitro-3-(((tetrahydro-2H-pyran)-4-sulfonamido)methyl)-3,4-dihdyro-2H-benzo[b][1,4]oxazin-7-yl)sulfonyl)benzamide] | 338
3 | CC1(C)CCC(CN2CCN(c3ccc(C(=O)NS(=O)(=O)c4cc5c(c([N+](=O)[O-])c4)N[C@@H](CC(=O)N4CCOCC4)CO5)c(Oc4cnc5[nH]ccc5c4)c3)CC2)=C(c2ccc(Cl)cc2)C1 [Example 2-142, (S)-2-((1H-pyrrolo[2,3-b]pyridin-5-yl)oxy)-4-(4-((4′-chloro-5,5-dimethyl-3,4,5,6-tetra-hydro-[1,1′-biphenyl]-2-yl)methyl)piperazin-1-yl)-N-((3-(2-morpholino-2-oxoethyl)-5-nitro-3,4-dihydro-2H-benzo[b][1,4]oxazin-7-yl)sulfonyl)benzamide] | 28
35 | CC1(C)CCC(CN2CCN(c3ccc(C(=O)NS(=O)(=O)c4cc5c(c([N+](=O)[O-])c4)N[C@H](CC(=O)N4CCOCC4)CO5)c(Oc4cnc5[nH]ccc5c4)c3)CC2)=C(c2ccc(Cl)cc2)C1 [Example 2-143, (R)-2-((1H-pyrrolo[2,3-b]pyridin-5-yl)oxy)-4-(4-((4′-chloro-5,5-dimethyl-3,4,5,6-tetra-hydro-[1,1′-biphenyl]-2-yl)methyl)piperazin-1-yl)-N-((3-(2-morpholino-2-oxoethyl)-5-nitro-3,4-dihydro-2H-benzo[b][1,4]oxazin-7-yl)sulfonyl)benzamide] | 35
3 | CC1(C)CCC(CN2CCN(c3ccc(C(=O)NS(=O)(=O)c4cc5c(c([N+](=O)[O-])c4)N[C@H](CC#N)CO5)c(Oc4cnc5[nH]ccc5c4)c3)CC2)=C(c2ccc(Cl)cc2)C1 [Example 2-144, (R)-2-((1H-pyrrolo[2,3-b]pyridin-5-yl)oxy)-4-(4-((4′-chloro-5,5-dimethyl-3,4,5,6-tetra-hydro-[1,1′-biphenyl]-2-yl)methyl)piperazin-1-yl)-N-((3-(cyanomethyl)-5-nitro-3,4-di-hydro-2H-benzo[b][1,4]oxazin-7-yl)sulfo-nyl)benzamide] | 14
1 | CC1(C)CCC(CN2CCN(c3ccc(C(=O)NS(=O)(=O)c4cc5c(c([N+](=O)[O-])c4)N[C@H](CS(C)(=O)=O)CO5)c(Oc4cnc5[nH]ccc5c4)c3)CC2)=C(c2ccc(Cl)cc2)C1 [Example 2-145, (S)-2-((1H-pyrrolo[2,3-b]pyridin-5-yl)oxy)-4-(4-((4′-chloro-5,5-dimethyl-3,4,5,6-tetra-hydro-[1,1′-biphenyl]-2-yl)methyl)piperazin-1-yl)-N-((3-((methylsulfonyl)methyl)-5-nitro-3,4-dihydro-2H-benzo[b][1,4]oxazin-7-yl)sulfonyl)benzamide] | 87
16 | CC1(C)CCC(CN2CCN(c3ccc(C(=O)NS(=O)(=O)c4cc5c(c([N+](=O)[O-])c4)N[C@@H](CS(C)(=O)=O)CO5)c(Oc4cnc5[nH]ccc5c4)c3)CC2)=C(c2ccc(Cl)cc2)C1 [Example 2-147, (R)-2-((1H-pyrrolo[2,3-b]pyridin-5-yl)oxy)-4-(4-((4′-chloro-5,5-dimethyl-3,4,5,6-tetra-hydro-[1,1′-biphenyl]-2-yl)methyl)piperazin-1-yl)-N-((3-((methylsulfonyl)methyl)-5-nitro-3,4-dihdyro-2H-benzo[b][1,4]oxazin-7-yl)sulfonyl)benzamide] | 135
50 | CC1(C)CCC(CN2CCN(c3ccc(C(=O)NS(=O)(=O)c4cc5c(c([N+](=O)[O-])c4)N[C@H](CN4CCS(=O)(=O)CC4)CO5)c(Oc4cnc5[nH]ccc5c4)c3)CC2)=C(c2ccc(Cl)cc2)C1 [Example 2-149, (R)-2-((1H-pyrrolo[2,3-b]pyridin-5-yl)oxy)-4-(4-((4′-chloro-5,5-dimethyl-3,4,5,6-tetra-hydro-[1,1′-biphenyl]-2-yl)methyl)piperazin-1-yl)-N-((3-((1,1-dioxidothiomorpholino)methyl)-5-nitro-3,4-dihydro-2H-benzo[b] [1,4]oxazin-7-yl)sulfonyl)benzamide] | 247
